# Results taken from patent US20070128217A1 (priority 2003, published 2007).
# Assays:
# [1] = tested on: control sera (pooled serum of ten healthy LUMC hospital workers; commercial negative donor pooled serum from the Dutch bloodbank); type: binding, human; set-up: Binding of Control serum LUMC to linear peptides / Binding of Control serum Blood-bank to linear peptides / Binding of Control serum LUMC to looped peptides / Binding of Control Serum Blood-Bank to Looped peptides / Binding of Control serum LUMC to linear peptides of the protein M of SARS-CoV Urbani / Binding of Control serum Blood-bank to linear peptides of the protein M of SARS-CoV Urbani / Binding of Control serum LUMC to looped peptides of the protein M of SARS-CoV Urbani / Binding of Control Serum Blood-Bank to Looped peptides of the protein M of SARS-CoV Urbani: unit not given here
# [2] = tested on: rabbit serum obtained by immunizing a rabbit with the SARS-CoV strain Frankfurt 1; type: binding; set-up: Binding of a rabbit serum to linear peptides / Binding of a rabbit serum to looped peptides / Rabbit serum linear peptides / Rabbit serum looped peptides / Binding of a rabbit serum to linear peptides of protein N of SARS-CoV Urbani (Rabbit serum linear peptides) / Binding of a rabbit serum to looped/cyclic peptides of protein N of SARS-CoV Urbani (Rabbit serum looped peptides): unit not given here
# [3] = tested on: antibodies in sera from SARS patients (sera 1a, 1b, 2, 6, 37, 62, London, SARS-yellow, SARS-green); type: binding, human; set-up: Binding of serum 6 to linear peptides of protein X1 of SARS-CoV Urbani / Binding of serum 37 to linear peptides of protein X1 of SARS-CoV Urbani / Binding of serum 6 to looped/cyclic peptide (PEPSCAN-ELISA) / Binding of serum 37 to looped/cyclic peptide (PEPSCAN-ELISA) / Binding of serum 37 to looped/cyclic peptides of protein X1 of SARS-CoV Urbani / Binding of serum 6 to linear peptides of protein X2 / Binding of serum 37 to linear peptides of protein X2 / Binding of serum 37 to looped/cyclic peptides of protein X2 of SARS-CoV Urbani / Binding of serum 6 to linear peptides of protein M of SARS-CoV Urbani / Binding of serum 37 to linear peptides of protein M of SARS-CoV Urbani / Binding of serum 6 to looped/cyclic peptides of protein M of SARS-CoV Urbani / Binding of serum 37 to looped/cyclic peptides of protein M of SARS-CoV Urbani / Binding of serum 6 to linear peptides of protein X3 of SARS-CoV Urbani / Binding of serum 37 to linear peptides of protein X3 of SARS-CoV Urbani / Binding of serum 37 to looped/cyclic peptides of protein X3 of SARS-CoV Urbani / Binding of serum 6 to linear peptides of protein X4 of SARS-CoV Urbani / Binding of serum 37 to linear peptides of protein X4 of SARS-CoV Urbani / Binding of serum 37 to looped/cyclic peptides of protein X4 of SARS-CoV Urbani / Binding of serum 6 to linear peptides of protein X5 of SARS-CoV Urbani / Binding of serum 37 to linear peptides of protein X5 of SARS-CoV Urbani / Binding of serum 37 to looped/cyclic peptides of protein X5 of SARS-CoV Urbani / Binding of serum 6 to linear peptides of protein N of SARS-CoV Urbani / Binding of serum 37 to linear peptides of protein N of SARS-CoV Urbani / Binding of serum 6 to linear peptide (PEPSCAN-ELISA) / Binding of serum 1a to looped/cyclic peptides of protein N of SARS-CoV Urbani / Binding of serum 1b to looped/cyclic peptides of protein N of SARS-CoV Urbani / Binding of serum 2 to looped/cyclic peptides of protein N of SARS-CoV Urbani / Binding of serum 6 to looped/cyclic peptides of protein N of SARS-CoV Urbani / Binding of serum 37 to looped/cyclic peptides of protein N of SARS-CoV Urbani / Binding of serum 62 to looped/cyclic peptides of protein N of SARS-CoV Urbani / Binding of serum London to looped/cyclic peptides of protein N of SARS-CoV Urbani / Binding of serum SARS-green to looped/cyclic peptides of protein N of SARS-CoV Urbani: unit not given here
sequence,measurement,setting,value
QVTIAEILIIIMRTF,Binding of Control Serum Blood-Bank to Looped peptides of the protein X3 of SARS-CoV Urbani,[1],0.9
same,Binding of Control serum Blood-bank to linear peptides of the protein X3 of SARS-CoV Urbani,[1],0.7
same,Binding of Control serum LUMC to linear peptides of the protein X3 of SARS-CoV Urbani,[1],0.7
same,Binding of Control serum LUMC to looped peptides of the protein X3 of SARS-CoV Urbani,[1],0.7
same,Rabbit serum linear peptides,[2],0.3
same,Rabbit serum looped peptides,[2],0.6
same,Binding of serum 1a to linear peptides of protein X3 of SARS-CoV Urbani,[3],0.7
same,Binding of serum 1a to looped/cyclic peptides of protein X3 of SARS-CoV Urbani,[3],0.7
same,Binding of serum 1b to linear peptides of protein X3 of SARS-CoV Urbani,[3],0.4
same,Binding of serum 1b to looped/cyclic peptides of protein X3 of SARS-CoV Urbani,[3],0.3
same,Binding of serum 2 to linear peptides of protein X3 of SARS-CoV Urbani,[3],0.5
same,Binding of serum 2 to looped/cyclic peptides of protein X3 of SARS-CoV Urbani,[3],0.5
same,Binding of serum 6 to linear peptides of protein X3 of SARS-CoV Urbani,[3],0.5
same,Binding of serum 6 to looped/cyclic peptides of protein X3 of SARS-CoV Urbani,[3],0.5
same,Binding of serum 37 to linear peptides of protein X3 of SARS-CoV Urbani,[3],0.4
same,Binding of serum 37 to looped/cyclic peptides of protein X3 of SARS-CoV Urbani,[3],0.6
same,Binding of serum 62 to linear peptides of protein X3 of SARS-CoV Urbani,[3],0.7
same,Binding of serum 62 to looped/cyclic peptides of protein X3 of SARS-CoV Urbani,[3],0.4
same,Binding of serum London to linear peptides of protein X3 of SARS-CoV Urbani,[3],0.7
same,Binding of serum London to looped/cyclic peptides of protein X3 of SARS-CoV Urbani,[3],0.2
same,Binding of serum SARS-green to linear peptides of protein X3 of SARS-CoV Urbani,[3],0.4
same,Binding of serum SARS-green to looped/cyclic peptides of protein X3 of SARS-CoV Urbani,[3],0.2
same,Binding of serum SARS-yellow to linear peptides of protein X3 of SARS-CoV Urbani,[3],0.2
same,Binding of serum SARS-yellow to looped/cyclic peptides of protein X3 of SARS-CoV Urbani,[3],0.7
RARSVSPKLFIRQEE,Binding of Control Serum Blood-Bank to Looped peptides,[1],0.7
same,Binding of Control serum Blood-bank to linear peptides,[1],0.6
same,Binding of Control serum LUMC to linear peptides,[1],0.5
same,Binding of Control serum LUMC to looped peptides,[1],0.8
same,Recognition of the peptide by the rabbit serum,[2],recognized
same,Binding of serum 1a to linear peptides of protein X4 of SARS-CoV Urbani,[3],0.8
same,Binding of serum 1a to looped/cyclic peptides of protein X4 of SARS-CoV Urbani,[3],0.8
same,Binding of serum 1b to linear peptides of protein X4 of SARS-CoV Urbani,[3],0.6
same,Binding of serum 1b to looped/cyclic peptides of protein X4 of SARS-CoV Urbani,[3],0.7
same,Binding of serum 2 to linear peptides of protein X4 of SARS-CoV Urbani,[3],0.4
same,Binding of serum 2 to looped/cyclic peptides of protein X4 of SARS-CoV Urbani,[3],0.6
same,Binding of serum 6 to linear peptides of protein X4 of SARS-CoV Urbani,[3],0.6
same,Binding of serum 6 to looped/cyclic peptides of protein X4 of SARS-CoV Urbani,[3],0.8
same,Binding of serum 37 to linear peptides of protein X4 of SARS-CoV Urbani,[3],0.7
same,Binding of serum 37 to looped/cyclic peptides of protein X4 of SARS-CoV Urbani,[3],0.7
same,Binding of serum 62 to linear peptides of protein X4 of SARS-CoV Urbani,[3],0.8
same,Binding of serum 62 to looped/cyclic peptides of protein X4 of SARS-CoV Urbani,[3],0.7
same,Binding of serum London to linear peptides of protein X4 of SARS-CoV Urbani,[3],0.8
same,Binding of serum London to looped/cyclic peptides of protein X4 of SARS-CoV Urbani,[3],0.5
same,Binding of serum SARS-green to linear peptides of protein X4 of SARS-CoV Urbani,[3],0.6
same,Binding of serum SARS-green to looped/cyclic peptides of protein X4 of SARS-CoV Urbani,[3],0.7
same,Binding of serum SARS-yellow to linear peptides of protein X4 of SARS-CoV Urbani,[3],0.1
same,Binding of serum SARS-yellow to looped/cyclic peptides of protein X4 of SARS-CoV Urbani,[3],0.7
RCDIKDLPKEITVAT,Binding of Control Serum Blood-Bank to Looped peptides of the protein M of SARS-CoV Urbani,[1],0.6
same,Binding of Control serum Blood-bank to linear peptides of the protein M of SARS-CoV Urbani,[1],0.7
same,Binding of Control serum LUMC to linear peptides of the protein M of SARS-CoV Urbani,[1],0.5
same,Binding of Control serum LUMC to looped peptides of the protein M of SARS-CoV Urbani,[1],0.7
same,Rabbit serum linear peptides,[2],0.0
same,Rabbit serum looped peptides,[2],0.3
same,Binding of serum 1a to linear peptides of protein M of SARS-CoV Urbani,[3],0.7
same,Binding of serum 1a to looped/cyclic peptides of protein M of SARS-CoV Urbani,[3],0.6
same,Binding of serum 1b to linear peptides of protein M of SARS-CoV Urbani,[3],0.5
same,Binding of serum 1b to looped/cyclic peptides of protein M of SARS-CoV Urbani,[3],0.4
same,Binding of serum 2 to linear peptides of protein M of SARS-CoV Urbani,[3],0.5
same,Binding of serum 2 to looped/cyclic peptides of protein M of SARS-CoV Urbani,[3],0.6
same,Binding of serum 6 to linear peptides of protein M of SARS-CoV Urbani,[3],0.3
same,Binding of serum 6 to looped/cyclic peptides of protein M of SARS-CoV Urbani,[3],0.6
same,Binding of serum 37 to linear peptides of protein M of SARS-CoV Urbani,[3],0.5
same,Binding of serum 37 to looped/cyclic peptides of protein M of SARS-CoV Urbani,[3],0.6
same,Binding of serum 62 to linear peptides of protein M of SARS-CoV Urbani,[3],0.6
same,Binding of serum 62 to looped/cyclic peptides of protein M of SARS-CoV Urbani,[3],0.6
same,Binding of serum London to linear peptides of protein M of SARS-CoV Urbani,[3],0.3
same,Binding of serum London to looped/cyclic peptides of protein M of SARS-CoV Urbani,[3],0.2
same,Binding of serum SARS-green to linear peptides of protein M of SARS-CoV Urbani,[3],0.5
same,Binding of serum SARS-green to looped/cyclic peptides of protein M of SARS-CoV Urbani,[3],0.4
same,Binding of serum SARS-yellow to linear peptides of protein M of SARS-CoV Urbani,[3],0.2
same,Binding of serum SARS-yellow to looped/cyclic peptides of protein M of SARS-CoV Urbani,[3],0.7
RGNTYSTAWLCALGK,Binding of Control Serum Blood-Bank to Looped peptides,[1],0.4
same,Binding of Control serum Blood-bank to linear peptides,[1],1.0
same,Binding of Control serum LUMC to linear peptides,[1],0.6
same,Binding of Control serum LUMC to looped peptides,[1],0.6
same,Rabbit serum linear peptides,[2],1.3
same,Rabbit serum looped peptides,[2],0.8
same,Binding of serum 1a to linear peptides of protein X5 of SARS-CoV Urbani,[3],0.9
same,Binding of serum 1a to looped/cyclic peptides of protein X5 of SARS-CoV Urbani,[3],0.4
same,Binding of serum 1b to linear peptides of protein X5 of SARS-CoV Urbani,[3],0.6
same,Binding of serum 1b to looped/cyclic peptides of protein X5 of SARS-CoV Urbani,[3],0.3
same,Binding of serum 2 to linear peptides of protein X5 of SARS-CoV Urbani,[3],0.9
same,Binding of serum 2 to looped/cyclic peptides of protein X5 of SARS-CoV Urbani,[3],0.6
same,Binding of serum 6 to linear peptides of protein X5 of SARS-CoV Urbani,[3],0.7
same,Binding of serum 6 to looped/cyclic peptides of protein X5 of SARS-CoV Urbani,[3],0.9
same,Binding of serum 37 to linear peptides of protein X5 of SARS-CoV Urbani,[3],0.8
same,Binding of serum 37 to looped/cyclic peptides of protein X5 of SARS-CoV Urbani,[3],0.5
same,Binding of serum 62 to linear peptides of protein X5 of SARS-CoV Urbani,[3],0.8
same,Binding of serum 62 to looped/cyclic peptides of protein X5 of SARS-CoV Urbani,[3],0.7
same,Binding of serum London to linear peptides of protein X5 of SARS-CoV Urbani,[3],0.8
same,Binding of serum London to looped/cyclic peptides of protein X5 of SARS-CoV Urbani,[3],1.4
same,Binding of serum SARS-green to linear peptides of protein X5 of SARS-CoV Urbani,[3],0.6
same,Binding of serum SARS-green to looped/cyclic peptides of protein X5 of SARS-CoV Urbani,[3],0.3
same,Binding of serum SARS-yellow to linear peptides of protein X5 of SARS-CoV Urbani,[3],0.3
same,Binding of serum SARS-yellow to looped/cyclic peptides of protein X5 of SARS-CoV Urbani,[3],0.5
